# According to patent publication US11298396B2, “Agent for inhibiting or reducing light sensitivity” (Osaka University, priority 2017, dated 2022):
# Residues, ends and D or L forms follow the SMILES beside them. *: point of attachment. Cbz = O=C(OCc1ccccc1)*
# B1: C-terminal protein (C-terminal 298 residues) of the mouse Klhl18 gene: C-terminal 298 residues of mouse Klhl18 protein, expressed from plasmid pCAG-N-3× FLAG-C-Klhl18; acts as dominant negative (protein)
# chain: RTRPRCCTSIAGLIYAVGGLNSAGDSLNVVEVFDPIANRWEKCHPMTTARSRVGVAVVNGLLYAIGGYDGQLRLSTVEAYNPETDTWTRVGSMNSKRSAMGTVVLDGQIYVCGGYDGNSSLNSVETYSPETDKWTVVTPMSSNRSAAGVTVFEGRIYVSGGHDGLQIFSSVEHYNHHTATWHPAASMLNKRCRHGAASLGSKMFVCGGYDGSGFLSIAEMYSSVADQWCLIVPMHTRRSRVSLVASCGRLYAVGGYDGQSNLSSVEMYDPETDRWTFMAPMACHEGGVGVGCIPLLTI
# modifications: left off: small tags and cut ends
# notes: C-terminal 298 residues of mouse Klhl18 protein, expressed from plasmid pCAG-N-3× FLAG-C-Klhl18; acts as dominant negative
# Legend:
# [1] = system: Klhl18 protein; assay: Inhibition of Klhl18-mediated degradation of Unc119 in transfected HEK293T cells, Western blotting; type: cell-based, mouse
# Experimental: Retinal tissue was harvested from one month old Klhl18 KO mice and wild-type (C57BL/6J strain) mice (purchased from Japan SLC) according to the conventional method. The retinal tissue was dissolved in 2× sample buffer (0.1 M Tris-HCl (pH 6.8), 1% SDS, 5% β-mercaptoethanol, 10% glycerol, and 0.02% BPB) and heat-treated at 100° C. for 5 minutes. SDS-PAGE was performed and the separated proteins on the gel were electrically transferred to a PVDF membrane (Merck Millipore) at 12 V for 90 minutes. The PVDF membrane was blocked with blocking solution (5% skim milk and 0.05% Tween 20/TBS) with shaking at room temperature for 1 hour. The PVDF membrane was reacted with a primary antibody diluted in the blocking solution at 4° C. overnight. The primary antibody was anti-Unc119 antibody (mouse monoclonal, a gift from Dr. Haeseleer (University of Washington, USA) (Haeseleer, 2008), 1:10 dilution) or α-Tublin antibody (mouse monoclonal, Sigma, 1:6,000 dilution). After completion of reaction with the primary antibody, the PVDF membrane was washed three times with 0.05% Tween 20/TBS with shaking at room temperature for 10 minutes. The PVDF membrane was reacted with a secondary antibody diluted in the blocking solution at room temperature for 1 hour. The secondary antibody was anti-mouse IgG (H+L) HRP-conjugated antibody (goat polyclonal, Zymed, 1:6,000 dilution). After completion of reaction with the secondary antibody, the PVDF membrane was again washed three times with 0.05% Tween 20/TBS with shaking at room temperature for […]. The PVDF membrane was reacted with chemiluminescent reagent (Chemi-Lumi One (Nacalai Tesque)) or Pierce Western Blotting Substrate Plus (Thermo Fisher Scientific). The membrane was exposed to an X-ray film, and the protein of interest was detected using a film processor.
# The HEK293T cell line was cultured in DMEM (Wako Pure Chemical Industries) supplemented with antibiotics (penicillin (100 μg/mL)/streptomycin (100 μg/mL)) and 10% FBS at 37° C. under 5% CO2. […]
# [2] = system: BALB/c mice; assay: Light-induced damage in mice, fluorescence immunostaining of the retina; type: in vivo, mouse; conditions: 60 mg/kg subcutaneous; blue light damage for three days; vs DMSO control (FIG. 25)
# Experimental: Fluorescent immunostaining was performed using the mouse retinal sections. Specifically, the mouse retinal sections prepared in the same manner as in Example 2 (2) were washed twice with PBS, and blocked with blocking buffer (4% Normal donkey serum/0.1% Triton X-100/PBS) at room temperature for 1 hour. The sections were reacted with a primary antibody at 4° C. overnight. The sections were washed three times with PBS, and reacted with a secondary antibody at room temperature for 2 hours. The primary antibody was anti-Rhodopsin antibody (rhodopsin, rabbit polyclonal, Santa Cruz, 1:500 dilution) or anti-S-opsin antibody (S-opsin (blue cone opsin), goat polyclonal, Santa Cruz, 1:500 dilution). The secondary antibody was Alexa Flour 488-conjugated anti-rabbit antibody (Thermo Fisher Scientific, 1:500 dilution) or Cy3 antibody (Jackson ImmunoResearch Laboratories, 1:500 dilution). After completion of reaction with the secondary antibody, the specimens were washed three times with PBS and sealed in mounting medium. All fluorescence images were taken under a confocal laser scanning microscope (LSM 700, Carl Zeiss).
# MLN4924 (Chemscene) (60 mg/kg) was subcutaneously injected into the back of 4-weeks-old BALB/c mice (Japan SLC) that were kept in a dark place for 7 hours to be adapted to darkness. […]
# [3] = system: BALB/c mice; assay: Light-induced damage in mice, thickness of the photoreceptor layer (toluidine blue staining); type: in vivo, mouse; conditions: 60 mg/kg subcutaneous; blue light damage for three days; vs DMSO control (FIG. 26)
# Experimental: Retinal sections of wild-type control mice and Klhl18 KO mice with light-induced damage were prepared in the same manner as in Example 2 (2). The mouse retinal sections were used to measure the thickness of the photoreceptor layer in the same manner as in Example 5. Specifically, the sections were washed with PBS and stained with 0.1% toluidine blue (Sigma)/PBS for 1 minute. The sections were washed three times with PBS, and sealed in mounting medium. The sealed specimens were observed under an upright microscope equipped with a differential interference contrast objective lens. The thickness of the photoreceptor layer was determined by measuring the distance from the optic nerve.
# MLN4924 (Chemscene) (60 mg/kg) was subcutaneously injected into the back of 4-weeks-old BALB/c mice (Japan SLC) that were kept in a dark place for 7 hours to be adapted to darkness. Four hours later, the mice were placed in a box with four mirrored walls and a mirrored floor, and exposed to blue LED light. The wavelength of the light was about 450 nm, and the light reaching the mice was at about 7000 lux. After three hours of exposure to the blue light, the mice were kept in the normal environment for 10 hours. This cycle was repeated for three days. […]
# [4] = system: BALB/c mice; assay: Light-induced damage in mice, electroretinogram (ERG) recording; type: in vivo, mouse; conditions: 60 mg/kg subcutaneous; blue LED about 450 nm, about 7000 lux, 3 hours, cycle repeated for three days; ERG four days after final exposure; vs DMSO control (FIG. 24)
# Experimental: Wild-type or Klhl18 KO mice of postnatal 2 months were light adapted or dark adapted. Light adaptation was performed at a light level of about 1000 lux for 1 hour or longer, and dark adaptation was performed by keeping the mice in a dark room for 4 hours or longer. Anesthesia was performed on dark-adapted or light-adapted mice with intraperitoneal injection of ketamine (100 mg/kg body weight per mouse) and xylazine (10 mg/kg body weight per mouse) in saline. Pupils were dilated with topical administration to the eyes with a mixture of 0.5% tropicamide and 0.5% phenylephrine HCl. ERG responses were measured with LED electrodes that emit a white flash (PuREC; Mayo Corporation). The mouse cornea was brought into contact with the electrodes, and stimulated with the stimulating flash using LED Visual Stimulator (LS-100, Mayo Corporation), and the ERG waves were recorded by TA-100 (Mayo Corporation) (FIGS. 7A and 8A). Strobe light stimulation with four levels of stimulus intensities ranging from −4.0 to 1.0 log cd−s/m^2 (−4.0, −3.0, −1.0 and 1 log cd−s/m^2) were used for the scotopic ERGs to measure the function of rod photoreceptor cells. […] From the wave data, a-waves and b-waves were quantified and expressed as the mean value±standard error. The photopic ERGs were recorded on a rod-suppressing white background of 1.3 log cd/m^2. […]
molecule,measurement,setting,value
CC(C)C[C@@H](C=O)NC(=O)[C@H](CC(C)C)NC(=O)[C@H](CC(C)C)NC(=O)OCc1ccccc1 [MG-132] (Cbz-Leu-Leu-Leu-aldehyde),degradation of the target protein Unc119 by the full-length Klhl18 protein,"[1]; HEK293T cells, MG-132 final concentration 10 μM, 6 hours, vs 0.1% DMSO (FIG. 11)",inhibits degradation of the target protein Unc119 by the full-length Klhl18 protein
NS(=O)(=O)OC[C@@H]1C[C@@H](n2ccc3c(N[C@H]4CCc5ccccc54)ncnc32)C[C@@H]1O [MLN4924],signal intensities and thickness of cone photoreceptor cells (markers: S-opsin and M-opsin),[2],better retained as compared with those in the control mice
same,signal intensities and thickness of rod photoreceptor cells (marker: rhodopsin),[2],better retained as compared with those in the control mice
same,degradation of the target Unc119 protein by the full-length Klhl18 protein,"[1]; HEK293T cells, MLN4924 final concentration 0.3 μM, 6 hours, vs 0.3% DMSO (FIG. 15)",inhibits degradation of the target Unc119 protein by the full-length Klhl18 protein
same,thickness of the photoreceptor layer in the retina,[3],better maintained as compared with that of the control mice
same,electric amplitudes of the a-waves (photoreceptor cell activity),[4],higher than those in the control mice
same,electric amplitudes of the b-waves (bipolar cell activity),[4],higher than those in the control mice
B1,degradation of the target protein Unc119 by the full-length Klhl18 protein,"[1]; HEK293T cells co-transfected with FLAG-Klhl18, FLAG-C-terminal Klhl18 and HA-Unc119 plasmids, anti-HA Western blot (FIG. 10)",inhibits degradation of the target protein Unc119 by the full-length Klhl18 protein
